Test results reported in patent US9221787B2, “Sulphonamine compounds and methods of making and using same” (Zafgen, Inc., priority 2010, dated 2015).

Target: T1, recombinant human MetAP2 (Homo sapiens, UniProt P50579)
T1 construct: Flag; made in house; host or cells: Sf9 insect cells
Assay: Inhibition of recombinant human MetAP2 activity (Amplex red fluorescence assay)
Assay type: biochemical
Settings: manganese enzyme, 0.75 mM Methionine-Alanine-Serine (MAS) substrate, 30 minutes at 25° C., pH 7.5, 1% DMSO
Experimental: Compounds are tested for their capacity to inhibit recombinant human MetAP2 activity using the following assay.
Human recombinant Flag-MetAP2 expressed in Sf9 cells followed by affinity purification and EDTA treatment to remove endogenous active site cation is dialysed against MnCl2 to produce the manganese enzyme used in the assay. The assay is carried out for 30 minutes at 25° C. in 50 mM HEPES buffer containing 100 mM NaCl, pH 7.5 the presence of 0.75 mM Methionine-Alanine-Serine (MAS) substrate and […] amino acid oxidase using a dilution of purified MetAP2 giving approximately 50,000 RFU control activity. Cleavage of the substrate by MetAP2 and oxidation of free methionine by amino acid oxidase is detected and quantified using fluorescence generated by Amplex red (10-acetyl-3,7-dihydroxyphenoxazine) in combination with horseradish peroxidase which detects H2O2 released during the oxidation step. The fluorescent signal is detected using a multiwell fluorimeter. Compounds are diluted in DMSO prior to addition to assay buffer, the final DMSO concentration in the assay being 1%.
The IC50 is defined as the concentration at which a given compound achieves 50% inhibition of control. IC50 values are calculated using the XLfit software package (version 2.0.5).

T1 sequence (P50579 whole entry): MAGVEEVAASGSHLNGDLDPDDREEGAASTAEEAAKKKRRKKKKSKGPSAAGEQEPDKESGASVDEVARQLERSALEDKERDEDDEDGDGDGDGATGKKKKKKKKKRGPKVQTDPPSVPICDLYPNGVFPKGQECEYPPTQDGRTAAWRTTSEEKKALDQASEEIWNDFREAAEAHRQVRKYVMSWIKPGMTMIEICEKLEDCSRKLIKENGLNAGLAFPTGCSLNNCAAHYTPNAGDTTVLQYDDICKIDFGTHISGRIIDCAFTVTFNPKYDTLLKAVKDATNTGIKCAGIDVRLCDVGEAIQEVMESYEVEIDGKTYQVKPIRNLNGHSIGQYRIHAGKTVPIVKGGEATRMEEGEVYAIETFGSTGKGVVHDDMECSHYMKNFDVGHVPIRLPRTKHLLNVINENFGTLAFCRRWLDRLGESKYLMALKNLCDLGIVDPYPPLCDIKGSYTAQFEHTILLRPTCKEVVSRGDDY

| Compound | IC50 |
| --- | --- |
| CCc1ccccc1S(=O)(=O)Nc1sc2c(c1C(=O)O)CCCC2 [2-(2-Ethylbenzenesulphonylamino)-4,5,6,7-tetrahydrobenzo[b]thiophene-3-carboxylic acid] | < 200 nM |
| O=C(O)c1c(NS(=O)(=O)c2ccccc2Cl)sc2c1CCCC2 [2-(2-Chlorobenzenesulphonylamino)-4,5,6,7-tetrahydrobenzo[b]thiophene-3-carboxylic acid] | 200 to 2000 nM |
| Cc1c(-c2ccoc2)sc(NS(=O)(=O)c2ccccc2)c1C(=O)O [2-Benzenesulphonylamino-5-(furan-3-yl)-4-methylthiophene-3-carboxylic acid] | 200 to 2000 nM |
| O=C(O)c1c(NS(=O)(=O)c2cccc(Cl)c2)sc2c1CCCC2 [2-(3-Chlorobenzenesulphonylamino)-4,5,6,7-tetrahydrobenzo[[b]thiophene-3-carboxylic acid] | 200 to 2000 nM |
| O=C(O)c1cc(-c2ccccc2)sc1NS(=O)(=O)c1ccccc1 [2-Benzenesulphonylamino-5-phenylthiophene-3-carboxylic acid] | > 2000 nM |
| O=C(O)c1c(NS(=O)(=O)c2ccc(F)cc2)sc2c1CCCC2 [2-(4-Fluorobenzenesulphonylamino)-4,5,6,7-tetrahydrobenzo[b]thiophene-3-carboxylic acid] | < 200 nM |
| Cn1c2c(c(C(=O)O)c1NS(=O)(=O)c1ccccc1)CCCC2 [2-Benzenesulphonylamino-1-methyl-4,5,6,7-tetrahydro-1H-indole-3-carboxylic acid] | 200 to 2000 nM |
| O=C(O)c1c(NS(=O)(=O)c2ccccc2)sc2ccccc12 [2-Benzenesulphonylaminobenzo[b]thiophene-3-carboxylic acid] | > 2000 nM |
| Cc1cc(F)ccc1S(=O)(=O)Nc1sc2c(c1C(=O)O)CCCC2 [2-(4-Fluoro-2-methylbenzenesulphonylamino)-4,5,6,7-tetrahydrobenzo[b]thiophene-3-carboxylic acid] | 200 to 2000 nM |
| O=C(O)c1c(NS(=O)(=O)c2ccc(Cl)cc2)sc2c1CCCC2 [2-(4-Chlorobenzenesulphonylamino)-4,5,6,7-tetrahydrobenzo[b]thiophene-3-carboxylic acid] | 200 to 2000 nM |
| CCN(CC)C/C=C\c1ccccc1S(=O)(=O)Nc1sc2c(c1C(=O)O)CCCC2 [2-[2-((Z)-3-Diethylaminoprop-1-enyl)benzenesulphonylamino]-4,5,6,7-tetrahydrobenzo[b]thiophene-3-carboxylic acid] | 200 to 2000 nM |
| Cc1c(-c2ccccc2)sc(NS(=O)(=O)c2ccccc2)c1C(=O)O [2-Benzenesulphonylamino-4-methyl-5-phenylthiophene-3-carboxylic acid] | > 2000 nM |
| COc1cccc(S(=O)(=O)Nc2sc3c(c2C(=O)O)CCCC3)c1 [2-(3-Methoxybenzenensulphonylamino)-4,5,6,7-tetrahydrobenzo[b]thiophene-3-carboxylic acid] | 200 to 2000 nM |
| O=C(O)c1c(NS(=O)(=O)C2CCCCC2)sc2c1CCCC2 [2-(Cyclohexanesulphonylamino)-4,5,6,7-tetrahydrobenzo[b]thiophene-3-carboxylic acid] | 200 to 2000 nM |
| O=C(O)c1c(NS(=O)(=O)c2ccccc2C(F)(F)F)sc2c1CCCC2 [2-(2-Trifluoromethylbenzenesulphonylamino)-4,5,6,7-tetrahydrobenzo[b]thiophene-3-carboxylic acid] | 200 to 2000 nM |
| COc1ccccc1S(=O)(=O)Nc1sc2c(c1C(=O)O)CCCC2 [2-(2-Methoxybenzenesulphonylamino)-4,5,6,7-tetrahydrobenzo[b]thiophene-3-carboxylic acid] | < 200 nM |
| O=C(O)c1cc(C2CCOCC2)sc1NS(=O)(=O)c1ccccc1 [2-Benzenesulphonylamino-5-(tetrahydropyran-4-yl)thiophene-3-carboxylic acid] | > 2000 nM |

The remaining lines, values ahead:

| IC50 | Compound |
| --- | --- |
| 200 to 2000 nM | O=C(O)c1c(NS(=O)(=O)c2ccccc2)sc2c1COCC2 [2-Benzenesulphonylamino-6,7-dihydro-4H-thieno[3,2-c]pyran-3-carboxylic acid] |
| 200 to 2000 nM | CC1(C)CCc2sc(NS(=O)(=O)c3ccccc3)c(C(=O)O)c2C1 [2-Benzenesulphonylamino-5,5-dimethyl-4,5,6,7-tetrahydrobenzo[b]thiophene-3-carboxylic acid] |
| 200 to 2000 nM | O=C(O)c1c(NS(=O)(=O)c2ccccc2)sc2c1CCC2 [2-Benzenesulphonylamino-5,6-dihydro-4H-cyclopenta[b]thiophene-3-carboxylic acid] |
| < 200 nM | Cc1ccccc1S(=O)(=O)Nc1sc2c(c1C(=O)O)CCCC2 [2-(2-Methylbenzenesulphonylamino)-4,5,6,7-tetrahydrobenzo[b]thiophen-3-carboxylic acid] |
| 200 to 2000 nM | CCc1sc(NS(=O)(=O)c2ccccc2)c(C(=O)O)c1C [2-Benzenesulphonylamino-5-ethyl-4-methylthiophene-3-carboxylic acid] |
| 200 to 2000 nM | CC1CCc2sc(NS(=O)(=O)c3ccccc3)c(C(=O)O)c2C1 (stereo not shown) [2-Benzenensulphonylamino-5-methyl-4,5,6,7-tetrahydrobenzo[b]thiophene-3-carboxylic acid] |
| 200 to 2000 nM | CCc1sc(NS(=O)(=O)c2ccccc2)c(C(=O)O)c1C(C)C [2-Benzenesulphonylamino-5-ethyl-4-isopropylthiophene-3-carboxylic acid] |
| < 200 nM | O=C(O)c1c(NS(=O)(=O)c2ccccc2)sc2c1CCCO2 |
| 200 to 2000 nM | O=C(O)c1c(NS(=O)(=O)Cc2ccccc2)sc2c1CCCC2 [2-Phenylmethanesulphonylamino-4,5,6,7-tetrahydrobenzo[b]thiophene-3-carboxylic acid] |
| < 200 nM | O=C(O)c1c(NS(=O)(=O)c2ccccc2)sc2c1CCCC2 [2-Benzenesulphonylamino-4,5,6,7-tetrahydrobenzo[b]thiophene-3-carboxylic acid] |
| < 200 nM | CC1CCc2c(sc(NS(=O)(=O)c3ccccc3)c2C(=O)O)C1 (stereo not shown) [2-Benzenesulphonylamino-6-methyl-4,5,6,7-tetrahydrobenzo[b]thiophene-3-carboxylic acid] |
| 200 to 2000 nM | O=C(O)c1c(NS(=O)(=O)c2ccccc2F)sc2c1CCCC2 [2-(2-Fluorobenzenesulphonylamino)-4,5,6,7-tetrahydrobenzo[b]thiophene-3-carboxylic acid] |
| 200 to 2000 nM | O=C(O)c1c(NS(=O)(=O)c2ccccc2)sc2c1CCOC2 [2-Benzenesulphonylamino-4,7-dihydro-5H-thieno[2,3-c]pyran-3-carboxylic acid] |
| 200 to 2000 nM | CC1(C)CCc2c(sc(NS(=O)(=O)c3ccccc3)c2C(=O)O)C1 [2-Benzenesulphonylamino-6,6-dimethyl-4,5,6,7-tetrahydrobenzo[b]thiophene-3-carboxylic acid] |
